Experimental data taken from patent US10370371B2, “Substituted pyrimidine Bmi-1 inhibitors” (PTC Therapeutics, Inc., priority 2013, dated 2019).

Columns and labels:
[1] = tested on: Bmi-1 protein; test: Sandwich ELISA Assay (Bmi-1 protein level in HT-1080 cells); format: cell-based
Procedure, shortened: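 HT-1080 cells were treated with compounds (0.5% DMSO final) for 40-48 h at 37 °C. Lysates were assayed by sandwich ELISA: mouse anti-Bmi-1 capture, rabbit anti-Bmi-1 and HRP anti-rabbit detection, TMB read at OD450 (OD570 reference). Levels were quantified against a recombinant GST-Bmi-1 standard curve (125-8000 pg/mL).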

Structure (SMILES) | EC50 [1] [nM] | melting point [°C]
Nc1cc(-n2c(C3CC3)nc3ccc(F)cc32)nc(Nc2ccc(OC(F)F)c(F)c2)n1 [Cpd 12, 6-(2-cyclopropyl-6-fluoro-1H-benzimidazol-1-yl)-N^2-[4-(difluoromethoxy)-3-fluorophenyl]pyrimidine-2,4-diamine] | 10 to 100 | 185 to 186
Nc1cc(-n2c(C(F)F)nc3ccc(F)cc32)nc(Nc2ccc(C(F)(F)F)cc2)n1 [Cpd 33, 6-[2-(difluoromethyl)-6-fluoro-1H-benzimidazol-1-yl]-N^2-[4-(trifluoromethyl)phenyl]pyrimidine-2,4-diamine] | 10 to 100 | 201 to 203
Nc1cc(-c2c(C(F)F)nc3ccc(F)cn23)nc(Nc2ccc(C(F)(F)F)cc2)n1 [Cpd 63, 6-[2-(difluoromethyl)-6-fluoroimidazo[1,2-a]pyridin-3-yl]-N^2-[4-(trifluoromethyl)phenyl]pyrimidine-2,4-diamine] | 100 to 3000 | 242 to 245
Nc1cc(-n2c(C3CC3)nc3ccc(F)cc32)nc(Nc2ccc(OC(F)F)cc2)n1 [Cpd 70, 6-(2-cyclopropyl-6-fluoro-1H-benzimidazol-1-yl)-N^2-[4-(difluoromethoxy)phenyl]pyrimidine-2,4-diamine] | 10 to 100 | 177 to 179
CCc1nc2ccc(F)cc2n1-c1cc(N)nc(Nc2ccc(OC(F)F)cc2)n1 [Cpd 71, N^2-[4-(difluoromethoxy)phenyl]-6-(2-ethyl-6-fluoro-1H-benzimidazol-1-yl)pyrimidine-2,4-diamine] | 10 to 100 | 171 to 173
COCc1nc2ccccc2n1-c1cc(N)nc(Nc2ccc(C(F)(F)F)cc2)n1 [Cpd 73, 6-[2-(methoxymethyl)-1H-benzimidazol-1-yl]-N^2-[4-(trifluoromethyl)phenyl]pyrimidine-2,4-diamine] | 100 to 3000 | 209 to 211
CC(C)c1nc2ccccc2n1-c1cc(N)nc(Nc2ccc(C(F)(F)F)cc2)n1 [Cpd 74, 6-[2-(propan-2-yl)-1H-benzimidazol-1-yl]-N^2-[4-(trifluoromethyl)phenyl]pyrimidine-2,4-diamine] | 100 to 3000 | 168 to 171
COCc1nc2ccc(F)cc2n1-c1cc(N)nc(Nc2ccc(OC(F)F)cc2)n1 [Cpd 78, N^2-[4-(difluoromethoxy)phenyl]-6-[6-fluoro-2-(methoxymethyl)-1H-benzimidazol-1-yl]pyrimidine-2,4-diamine] | 10 to 100 | 120 to 122
CC(C)c1nc2ccc(F)cc2n1-c1cc(N)nc(Nc2ccc(OC(F)F)cc2)n1 [Cpd 79, N^2-[4-(difluoromethoxy)phenyl]-6-[6-fluoro-2-(propan-2-yl)-1H-benzimidazol-1-yl]pyrimidine-2,4-diamine] | 10 to 100 | 167 to 169
Nc1cc(-n2c(C3CC3)nc3cc(F)ccc32)nc(Nc2ccc(OC(F)F)cc2)n1 [Cpd 80, 6-(2-cyclopropyl-5-fluoro-1H-benzimidazol-1-yl)-N^2-[4-(difluoromethoxy)phenyl]pyrimidine-2,4-diamine] | 10 to 100 | 136 to 138
CC(C)c1nc2cc(F)ccc2n1-c1cc(N)nc(Nc2ccc(OC(F)F)cc2)n1 [Cpd 81, N^2-[4-(difluoromethoxy)phenyl]-6-[5-fluoro-2-(propan-2-yl)-1H-benzimidazol-1-yl]pyrimidine-2,4-diamine] | 100 to 3000 | 118 to 120
Nc1cc(-n2c(C(F)F)nc3ccccc32)nc(Nc2ccc(OC(F)F)cc2)n1 [Cpd 88, N^2-[4-(difluoromethoxy)phenyl]-6-[2-(difluoromethyl)-1H-benzimidazol-1-yl]pyrimidine-2,4-diamine] | 1 to 10 | 114 to 115
CC(C)c1nc2ccccc2n1-c1cc(N)nc(Nc2ccc(OC(F)F)cc2)n1 [Cpd 89, N^2-[4-(difluoromethoxy)phenyl]-6-[2-(propan-2-yl)-1H-benzimidazol-1-yl]pyrimidine-2,4-diamine] | 10 to 100 | 184 to 187
Nc1cc(-n2c(C3CC3)nc3cc(F)ccc32)nc(Nc2ccc(C(F)(F)F)cc2)n1 [Cpd 103, 6-(2-cyclopropyl-5-fluoro-1H-benzimidazol-1-yl)-N^2-[4-(trifluoromethyl)phenyl]pyrimidine-2,4-diamine] | 10 to 100 | 237 to 238
Cc1nc2cc(F)ccc2n1-c1cc(N)nc(Nc2ccc(OC(F)F)c(F)c2)n1 [Cpd 105, N^2-[4-(difluoromethoxy)-3-fluorophenyl]-6-(5-fluoro-2-methyl-1H-benzimidazol-1-yl)pyrimidine-2,4-diamine] | 10 to 100 | 172 to 173
COc1ccn2nc(C3CC3)c(-c3cc(N)nc(Nc4ccc(C(F)(F)F)cc4)n3)c2c1 [Cpd 106, 6-(2-cyclopropyl-5-methoxypyrazolo[1,5-a]pyridin-3-yl)-N^2-[4-(trifluoromethyl)phenyl]pyrimidine-2,4-diamine] | 100 to 3000 | 172 to 174
CCc1nn2ccc(F)cc2c1-c1cc(N)nc(Nc2ccc(C(F)(F)F)cc2)n1 [Cpd 111, 6-(2-ethyl-5-fluoropyrazolo[1,5-a]pyridin-3-yl)-N^2-[4-(trifluoromethyl)phenyl]pyrimidine-2,4-diamine] | 10 to 100 | 153 to 157

Structure (SMILES) | EC50 [1] [nM] | melting point [°C]
Cc1nn2c(=O)n(C)c(C)cc2c1-c1cc(N)nc(Nc2ccc(C(F)(F)F)cc2)n1 [Cpd 117, 3-(6-amino-2-{[4-(trifluoromethyl)phenyl]amino}pyrimidin-4-yl)-2,5,6-trimethylpyrazolo[1,5-c]pyrimidin-7(6H)-one] | 100 to 3000 | 270 to 273
Nc1cc(-c2c(C3CC3)nn3ccccc23)nc(Nc2ccc(C(F)(F)F)cc2)n1 [Cpd 126, 6-(2-cyclopropylpyrazolo[1,5-a]pyridin-3-yl)-N^2-[4-(trifluoromethyl)phenyl]pyrimidine-2,4-diamine] | 100 to 3000 | 181 to 183
COc1ccc(Nc2nc(N)cc(-n3c(C)nc4ccccc43)n2)cc1 [Cpd 129, N^2-(4-methoxyphenyl)-6-(2-methyl-1H-benzimidazol-1-yl)pyrimidine-2,4-diamine] | ≤ 1 | 149 to 150
Cc1nc2ccccc2n1-c1cc(N)nc(Nc2ccc3c(c2)OCO3)n1 [Cpd 130, N^2-(1,3-benzodioxol-5-yl)-6-(2-methyl-1H-benzimidazol-1-yl)pyrimidine-2,4-diamine] | 1 to 10 | 118 to 119
Cc1ccc(Nc2nc(N)cc(-n3c(C)nc4ccc(F)cc43)n2)cc1 [Cpd 134, 6-(6-fluoro-2-methyl-1H-benzimidazol-1-yl)-N^2-(4-methylphenyl)pyrimidine-2,4-diamine] | 1 to 10 | 118 to 120
Cc1nc2ccc(F)cc2n1-c1cc(N)nc(Nc2ccc(Cl)cc2)n1 [Cpd 135, N^2-(4-chlorophenyl)-6-(6-fluoro-2-methyl-1H-benzimidazol-1-yl)pyrimidine-2,4-diamine] | 10 to 100 | 149 to 151
Cc1nc2ccc(F)cc2n1-c1cc(N)nc(Nc2ccc(N(C)C)cc2)n1 [Cpd 136, N^2-[4-(dimethylamino)phenyl]-6-(6-fluoro-2-methyl-1H-benzimidazol-1-yl)pyrimidine-2,4-diamine] | 1 to 10 | 232 to 235
Cc1nc2ccc(F)cc2n1-c1cc(N)nc(Nc2ccc(C#N)cc2)n1 [Cpd 137, 4-{[4-amino-6-(6-fluoro-2-methyl-1H-benzimidazol-1-yl)pyrimidin-2-yl]amino}benzonitrile] | 100 to 3000 | 183 to 185
Cc1nc2ccc(F)cc2n1-c1cc(N)nc(Nc2cccc(F)c2)n1 [Cpd 138, 6-(6-fluoro-2-methyl-1H-benzimidazol-1-yl)-N^2-(3-fluorophenyl)pyrimidine-2,4-diamine] | 100 to 3000 | 239 to 241
Cc1cccc(Nc2nc(N)cc(-n3c(C)nc4ccc(F)cc43)n2)c1 [Cpd 139, 6-(6-fluoro-2-methyl-1H-benzimidazol-1-yl)-N^2-(3-methylphenyl)pyrimidine-2,4-diamine] | 100 to 3000 | 156 to 158
COc1cccc(Nc2nc(N)cc(-n3c(C)nc4ccc(F)cc43)n2)c1 [Cpd 140, 6-(6-fluoro-2-methyl-1H-benzimidazol-1-yl)-N^2-(3-methoxyphenyl)pyrimidine-2,4-diamine] | 100 to 3000 | 127 to 129
Cc1nc2ccc(F)cc2n1-c1cc(N)nc(Nc2cccc(Cl)c2)n1 [Cpd 141, N^2-(3-chlorophenyl)-6-(6-fluoro-2-methyl-1H-benzimidazol-1-yl)pyrimidine-2,4-diamine] | 100 to 3000 | 211 to 213
COc1ccc(Nc2nc(N)cc(-n3c(C)nc4ccc(F)cc43)n2)cc1F [Cpd 142, N^2-(3-fluoro-4-methoxyphenyl)-6-(6-fluoro-2-methyl-1H-benzimidazol-1-yl)pyrimidine-2,4-diamine] | 1 to 10 | 166 to 167
Cc1nc2ccc(F)cc2n1-c1cc(N)nc(Nc2ccccc2)n1 [Cpd 143, 6-(6-fluoro-2-methyl-1H-benzimidazol-1-yl)-N^2-phenylpyrimidine-2,4-diamine] | 100 to 3000 | 158 to 161
COc1ccc(Nc2nc(N)cc(-n3c(C)nc4ccccc43)n2)cc1F [Cpd 148, N^2-(3-fluoro-4-methoxyphenyl)-6-(2-methyl-1H-benzimidazol-1-yl)pyrimidine-2,4-diamine] | 1 to 10 | 186 to 187
CCc1nc2ccccc2n1-c1cc(N)nc(Nc2ccc(Cl)cc2)n1 [Cpd 150, N^2-(4-chlorophenyl)-6-(2-ethyl-1H-benzimidazol-1-yl)pyrimidine-2,4-diamine] | 1 to 10 | 172 to 173
